This note sets out measurements from patent US8841281B2, “Transition metal complexes of amino acids and related ligands and their use as catalysts, anti-microbials, and anti-cancer agents” (Virginia Tech Intellectual Properties, Inc., priority 2011, dated 2014).

In one experiment the test system is S. Aur. The experiment is described as follows: Activity against S. Aur (Table VIIIB). In kind it is cell-based, Staphylococcus aureus.
In another experiment the test system is MRSA. Put plainly: Activity against MRSA strains (Table VIIIB, compounds used alone). In kind it is cell-based, Staphylococcus aureus.
A further experiment has as its system E. coli. Put plainly: MIC of complexes against E. coli. In kind it is cell-based.
Experiment [1] deals with mycobacteria, Staphylococcus aureus and methicillin-resistant S. aureus (MRSA). The following applies: among Ir, Ru, Rh L-α-amino acid complexes.
Experiment [2] deals with Mycobacterium chelonae strain EO-P-1.
Experiment [3] has as its system Mycobacterium bovis strain BCG. In kind it is cell-based.
Experiment [4] deals with Mycobacterium smegmatis strain mc^2155. It counts as cell-based.
Experiment [5] concerns Mycobacterium marinum ATCC 927.
Experiment [6] concerns Mycobacterium avium strain A5.
The test system of experiment [7] is Mycobacterium intracellulare.
In experiment [8] the test system is Mycobacterium abscessus strain AAy-P-1.
For another experiment, the system named is M. abscessus. The experiment is described as follows: 96 well plate dilution test, MIC against M. abscessus. It counts as cell-based. Conditions: Iridium piano stool complexes.
The subject of a further experiment is M. chelonae. The experiment is described as follows: 96 well plate dilution test, MIC against M. chelonae. It counts as cell-based.
The next experiment concerns M. smegmatis. The experiment is described as follows: 96 well plate dilution test, MIC against M. smegmatis. It counts as cell-based. The following applies: Iridium piano stool complexes.

Take `CN(C)CCN` [4 (N,N-dimethyl ethylenediamine)]: the “Activity (MIC) S. Aur” value in the experiment on S. Aur was over 250 µg/mL. Besides, the “Activity (MIC) MRSA PI-1” value in the experiment with MRSA (strain PI-1) was over 250 µg/mL. Also, in the experiment on MRSA (strain PI-34380), the “Activity (MIC) MRSA PI-34380” value was over 250 µg/mL. Also, in the experiment with MRSA (strain PI-34864), the “Activity (MIC) MRSA PI-34864” value was over 250 µg/mL. Moreover, the “Activity (MIC) MRSA PI-36361” value in the experiment with MRSA (strain PI-36361) was over 250 µg/mL. Further, the “Activity (MIC) MRSA PI-43300” value in the experiment on MRSA (strain PI-43300) is over 250 µg/mL. For the same compound, the “Activity (MIC) MRSA PI-52300” value in the experiment on MRSA (strain PI-52300) was over 250 µg/mL. Also, the “Activity (MIC) MRSA PI-53016” value in the experiment with MRSA (strain PI-53016) was over 250 µg/mL.
In the case of `C1=CCCC=CCC1.C[P](C)(C)[Ir+]([P](C)(C)C)[P](C)(C)C.[Cl-]` [Ir(COD)(PMe3)3], the “MIC ug/mL E. coli” value in the experiment on E. coli was 60 µg/mL.
Turning to Cp*IrCl (L-Phenylalanine) [1 (L-phe)], the “relative anti-mycobacterial / antibiotic activity” value in experiment [1] was “highest activity”.
With “Cp*IrCl (L-Phenylglycine) [1 (L-phengly)]”, the “relative anti-mycobacterial / antibiotic activity” value in experiment [1] is “highest activity”. The “Minimal Inhibitory Concentration (MIC) M. chelonae” value in [2] worked out at 0.010 g/L. For the same compound, in experiment [3], the “Minimal Inhibitory Concentration (MIC) M. bovis” value stood at 0.010 g/L. For the same compound, the “Minimal Inhibitory Concentration (MIC) M. smegmatis” value in experiment [4] worked out at 0.005 g/L. Also, the “Minimal Inhibitory Concentration (MIC) M. marinum” value in [5] was over 0.250 g/L. In experiment [6], the “Minimal Inhibitory Concentration (MIC) M. avium” value is over 0.250 g/L. Also, the “Minimal Inhibitory Concentration (MIC) M. intracellulare” value in experiment [7] amounted to 0.015 g/L. Further, the “Minimal Inhibitory Concentration (MIC) M. abscessus” value in [8] was 0.031 g/L.
Turning to Cp*IrCl (L-Proline) [1 (L-pro)], the “relative anti-mycobacterial / antibiotic activity” value in experiment [1] is “highest activity”. The “Minimal Inhibitory Concentration (MIC) M. chelonae” value in [2] was 0.015 g/L. In addition, the “Minimal Inhibitory Concentration (MIC) M. bovis” value in experiment [3] is given as 0.015 g/L. In addition, the “Minimal Inhibitory Concentration (MIC) M. smegmatis” value in experiment [4] was determined as 0.010 g/L. Further, the “Minimal Inhibitory Concentration (MIC) M. marinum” value in experiment [5] is listed as over 0.250 g/L. The “M. abscessus MIC” value in the experiment on M. abscessus turned out to be 3.9 µg/mL. Also, the “M. chelonae MIC” value with M. chelonae was found to be 7.5 µg/mL. In addition, the “Minimal Inhibitory Concentration (MIC) M. avium” value in experiment [6] is reported as 0.125 g/L. Also, the “M. smegmatis MIC” value with M. smegmatis turned out to be 3.9 µg/mL. Besides, the “Minimal Inhibitory Concentration (MIC) M. intracellulare” value in experiment [7] was 0.061 g/L. Further, in experiment [8], the “Minimal Inhibitory Concentration (MIC) M. abscessus” value was found to be 0.015 g/L.
“[Ir(COD)(N-methylethylenediamine)]Cl [3 (N-methyl en)]”: the “Minimal Inhibitory Concentration (MIC) M. chelonae” value in [2] is reported as over 0.250 g/L. For the same compound, the “MIC” value in the experiment with gram positive MRSA amounted to 16.2 µg/mL. In addition, the “Minimal Inhibitory Concentration (MIC) M. bovis” value in experiment [3] is given as over 0.250 g/L. The “Minimal Inhibitory Concentration (MIC) M. smegmatis” value in experiment [4] is over 0.250 g/L. For the same compound, the “Minimal Inhibitory Concentration (MIC) M. marinum” value in [5] was over 0.250 g/L. The “Minimal Inhibitory Concentration (MIC) M. avium” value in [6] was over 0.250 g/L. In experiment [7], the “Minimal Inhibitory Concentration (MIC) M. intracellulare” value is listed as over 0.250 g/L. In [8], the “Minimal Inhibitory Concentration (MIC) M. abscessus” value was over 0.250 g/L.
